Results reported in patent publication US12391701B2, “Chromene-based compounds, methods and uses thereof” (University of Minho, priority 2019, dated 2025).
Values after ≈ are worked out from the molar mass of the structure shown.

Legend:
[1] = Highest soluble concentration in C. elegans assay; format: physicochemical; settings: C. elegans liquid culture medium (S-medium) with 1% DMSO, 20 °C, aqueous buffer, kinetic from dmso stock, read-out: highest soluble concentration possible
Description: The compounds were tested at several concentrations, up to the highest soluble concentration possible −150 μM (MC369, 75 μM) (FIG. 12). […] The rate of food consumption between days 3-5 was used as an indication for worm development, health and fertility and compared to 1% DMSO, (vehicle, not toxic).
In an embodiment, Bristol strain N2 (provided by the CGC, funded by the NIH Office of Research Infrastructure Programs—P40 OD010440) was used to test each compound's toxicity based on a food clearance assay using C. elegans. The assay was performed on 96-well plates in liquid culture (Voisine et al. 2007; Teixeira-Castro et al. 2015). Each well, with a final volume of 60 μL, comprised the following: approximately 20 worms in egg stage, OP50 bacteria to a final OD of 0.6-0.8 (595 nm) and each compound at the appropriate concentration. The worms were grown with continuous shaking at 180 rpm/20° C. (Shel lab Si series incubator) for 7 days and the absorbance (OD595) was measured daily on a microplate reader (Tecan Infinite M200). The effect of the compounds on C. elegans physiology was monitored by the rate at which the E. coli food suspension was consumed (FIG. 14). Age-synchronized worm eggs were obtained by “egg prep” as follows: adult worms were treated with an alkaline hypochlorite solution (20% bleach, 25% 1M NaOH) for 6 minutes, thereafter centrifuged and washed in M9 buffer twice. […]

C57BI/6 mice [2] = test: Toxicity in C57BI/6 mice, 1st trial; format: in vivo
Description: In an embodiment, the safety profiles of the compounds were evaluated in rodents. […] FIG. 13A is a schematic representation of the experiment timeline. 5-month old female and male animals were used (n=3/group/gender) and injected either with MC408 3 mg/Kg or vehicle (saline, Tween80 and methylcellulose) (i.p.) daily for 7 days. A battery of welfare tests was performed daily. […] The activity was measured in a viewing jar and the number of vertical movements were counted for 5 minutes. […] The activity was recorded in an open arena labelled with squares and the number of squares were counted while the animals were freely exploring for 1 minute. […] In FIGS. 13G and H, water and food intake were analysed respectively. Each day, […] of food and 200 mL of water were placed in each cage. […] Data is presented as mean±SE.
In an embodiment, C57/BI6 female and male mice (n=3/group/gender) were intraperitoneally injected with MC408 (3 mg/Kg) or vehicle (saline, Tween80 and methylcellulose) daily, for 7 days to determine toxicity of the compounds in mice model. A battery of tests to assess mice welfare were performed daily. Immediately after the first drug administration, animals were videotaped and the immediate effects of MC408 were recorded. The number of vertical movements and the immobility time were recorded. Water and food intake were evaluated during the 7 days of the experiment, by adding a fixed amount of food and water in the animal's home cage in the 1st day and measuring the remaining amount at day 7. Body weight was assessed every day in a dynamic mouse scale. Horizontal and vertical activity was analysed to evaluate animals' intrinsic exploratory behavior; these were measured in an open arena with labelled squares for 1 minute and in a viewing jar for 5 minutes, respectively. Furthermore, the number of bolus faecalis were also counted while animals were performing the daily behavior assessment protocols, as a measure of anxiety. A battery of tests more related to animal welfare was applied by the experimenter, including measurements of: (i) body position and curvature; (ii) spontaneous activity; (iii) respiratory rate; (iv) eyelid opening and reflexes; (v) skin picking to analyse dehydration; (vi) grooming; (vii) fur erection; (viii) tremors; (ix) limb clasping and (x) reaction to transfer. At day 7, the animals were euthanized. All animals were deeply anesthetized (ketamine hydrochloride (150 mg/kg) and medetomidine (0.3 mg/kg)) and transcardially perfused with a saline solution (NaCl 0.9% (wt/v)). Blood was collected from the cava vein, centrifuged for 10 minutes at 13.000 rpm and the plasma was transferred to a new tube and stored at −80° C. until further processing for enzymatic liver function measurements using standard techniques. The organs (kidney, intestine, stomach, brain, liver, ovary/testis) were harvested and placed in tubes containing 4% paraformaldehyde and further processed for paraffin embedding and pathology analysis.

C57BI/6 mice [3] = test: Toxicity in C57BI/6 mice, 2nd trial; format: in vivo; settings: 3 mg/Kg i.p. daily for 7 days
Description: In an embodiment, the effects of compound treatment on C57BI/6 mice—2nd trial was analysed. […] FIG. 16A is a schematic representation of the experiment timeline. 3-month old female and male animals were used (n=6/group/gender) and injected either with MC408 3 mg/Kg or vehicle (saline, Tween80 and methylcellulose) (i.p.) daily for 7 days. In this trial the number of animals per group was increased and the experiment was conceived to collect blood before and after the treatment. […] Data is presented as mean±SE.

COc1cccc2c1Oc1nc(-c3ccccc3F)[nH]c1C2C1c2cccc(OC)c2Oc2nc(-c3ccccc3F)[nH]c21 (stereo not drawn) [MC369, 2,2′-bis(2-fluorophenyl)-5,5′-dimethoxy-1,1,9,9′-tetrahydro-9,9′-bichromeno[2,3-]imidazoles]
solubility [1]: 75 µM (≈ 44.3 µg/mL)

COc1cccc2c1Oc1nc(-c3ccc(Br)cc3)[nH]c1C2 [MC408, 2-(4-bromophenyl)-5-methoxy-3,9-dihydrochromeno[2,3-d]imidazoles]
exploratory activities (vertical and horizontal) (C57BI/6 mice [2]; 3 mg/Kg i.p. daily for 7 days): No differences were found | number of bolus faecalis (indirect measure of anxiety) (C57BI/6 mice [2]; 3 mg/Kg i.p. daily for 7 days): no differences were observed | body weight (C57BI/6 mice [2]; 3 mg/Kg i.p. daily for 7 days, 1st trial): no differences were found | water and food intake (C57BI/6 mice [2]; 3 mg/Kg i.p. daily, measured at day 7): no differences were found | battery of welfare tests (C57BI/6 mice [2]; 3 mg/Kg i.p. daily, vs vehicle): no impact | immobility time and vertical movement (REARS) immediately after first injection (C57BI/6 mice [2]; 3 mg/Kg i.p., 10 min, vs vehicle): No differences were found | serum AST and ALT (enzymatic liver function) (C57BI/6 mice [2]; day 7, females and males, vs vehicle): No statistical differences | body weight (C57BI/6 mice [3]): no differences were found
